Test results as given in PMC6505227, “Exploration of carbohydrate binding behavior and anti-proliferative activities of Arisaema tortuosum lectin” (BMC Molecular Biology, 2019).

T1: Arisaema tortuosum lectin (ATL) (Arisaema tortuosum, UniProt A0A1L6CAS7)
T1 construct: 257-residue precursor, predicted signal peptide 1-23, two domains (DOM1 N26-P132, DOM2 N146-A254) separated by processing; 52 kDa heterotetramer 2 x (A + B)
T1 sequence (A0A1L6CAS7 24-257): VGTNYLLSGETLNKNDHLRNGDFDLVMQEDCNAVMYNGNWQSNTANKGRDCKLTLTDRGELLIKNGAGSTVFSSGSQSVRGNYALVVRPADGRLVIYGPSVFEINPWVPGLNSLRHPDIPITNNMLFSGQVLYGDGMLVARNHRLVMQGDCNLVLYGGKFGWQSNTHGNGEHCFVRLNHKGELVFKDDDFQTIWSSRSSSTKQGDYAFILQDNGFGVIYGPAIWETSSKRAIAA

B1: asialofetuin (natural protein)
chain: IPLDPVAGYKEPACDDPDTEQAALAAVDYINKHLPRGYKHTLNQIDSVKVWPRRPTGEVYDIEIDTLETTCHVLDPTPLANCSVRQQTQHAVEGDCDIHVLKQDGQFSVLFTKCDSSPDSAEDVRKLCPDCPLLAPLNDSRVVHAVEVALATFNAESNGSYLQLVEISRAQFVPLPVSVSVEFAVAATDCIAKEVVDPTKCNLLAEKQYGFCKGSVIQKALGGEDVRVTCTLFQTQPVIPQPQPDGAEAEAPSAVPDAAGPTPSAAGPPVASVVVGPSVVAVPLPLHRAHYDLRHTFSGVASVESSSGEAFHVGKTPIVGQPSIPGGPVRLCPGRIRYFKI
modifications: complex glycoprotein (asialofetuin)

Experiments:
[1] = biological target: T1, Arisaema tortuosum lectin (ATL); test: CFG glycan microarray v5.[…], biotinylated lectin, fluorescence; type: binding; settings: glycan immobilised via spacer; mean over 10, 1.0 and 0.1 µg/ml lectin
[2] = biological target: Arisaema tortuosum lectin (Arisaema tortuosum); test: ITC; MicroCal iTC200, 18 injections, data fitted to a one site model; ATL dialysed in PBS; which partner was in the syringe is not stated
[3] = biological target: Arisaema tortuosum lectin (Arisaema tortuosum); test: ITC; MicroCal iTC200, 18 injections, fitted with a one site model; ATL dialysed against PBS; set-up as described in ref. 21; temperature not stated

Molecule	Avg. rank^a [1]	other results
Galb1-4GlcNAcb1-3Galb1-4GlcNAcb1-2Mana1-6(Galb1-4GlcNAcb1-3Galb1-4GlcNAcb1-2Mana1-3)Manb1-4GlcNAcb1-4(Fuca1-6)GlcNAcb-Sp24 [compound 576]	20.9 average rank (from RFU)	
GlcNAcb1-2Mana1-6(GlcNAcb1-4(GlcNAcb1-2)Mana1-3)Manb1-4GlcNAcb1-4GlcNAc-Sp21 [compound 389]	85.5 average rank (from RFU)	
Galb1-4GlcNAcb1-2Mana1-6(GlcNAcb1-2Mana1-3)Manb1-4GlcNAcb1-4GlcNAc-Sp12 [compound 399]	13.8 average rank (from RFU)	
Fuca1-2Galb1-4(Fuca1-3)GlcNAcb1-2Mana1-6(Fuca1-2Galb1-4(Fuca1-3)GlcNAcb1-2Mana1-3)Manb1-4GlcNAcb1-4(Fuca1-6)GlcNAcb-Sp24 [compound 473]	20.0 average rank (from RFU)	
Galb1-3GlcNAcb1-2Mana1-6(Galb1-3GlcNAcb1-2Mana1-3)Manb1-4GlcNAcb1-4GlcNAcb-Sp19 [compound 325]	57.7 average rank (from RFU)	
GlcNAcb1-3Galb1-4GlcNAcb1-2Mana1-6(GlcNAcb1-3Galb1-4GlcNAcb1-2Mana1-3)Manb1-4GlcNAcb1-4(Fuca1-6)GlcNAcb-Sp24 [compound 575]	20.6 average rank (from RFU)	
Gala1-4Galb1-3GlcNAcb1-2Mana1-6(Gala1-4Galb1-3GlcNAcb1-2Mana1-3)Manb1-4GlcNAcb1-4GlcNAcb-Sp19 [compound 404]	70.8 average rank (from RFU)	
Mana1-6(Mana1-3)Mana1-6(Mana1-2Mana1-3)Manb1-4GlcNAcb1-4GlcNAcb-Sp12 [compound 216]	37.3 average rank (from RFU)	
Mana1-6(Mana1-3)Manb1-4GlcNAcb1-4GlcNAcb-Sp13 [compound 51]	87.6 average rank (from RFU)	
Mana1-2Mana1-6(Mana1-3)Mana1-6(Mana1-2Mana1-2Mana1-3)Manb1-4GlcNAcb1-4GlcNAcb-Sp12 [compound 212]	35.7 average rank (from RFU)	
Fuca1-2Galb1-4 GlcNAcb1-2Mana1-6(Fuca1-2Galb1-4GlcNAcb1-2(Fuca1-2Galb1-4GlcNAcb1-4)Mana1-3)Manb1-4GlcNAcb1-4GlcNAcb-Sp12 [compound 446]	25.9 average rank (from RFU)	
Mana1-6(Mana1-3)Manb1-4GlcNAcb1-4(Fuca1-6)GlcNAcb-Sp19 [compound 485]	62.5 average rank (from RFU)	
Galb1-4GlcNAcb1-2Mana1-6(Galb1-4GlcNAcb1-4(Galb1-4GlcNAcb1-2)Mana1-3)Manb1-4GlcNAcb1-4GlcNAc-Sp21 [compound 370]	24.5 average rank (from RFU)	
GlcNAcb1-2Mana1-6(GlcNAcb1-2Mana1-3)Manb1-4GlcNAcb1-4GlcNAcb-Sp13 [compound 53]	48.0 average rank (from RFU)	
Mana1-6(Galb1-4GlcNAcb1-2Mana1-3)Manb1-4GlcNAcb1-4GlcNAcb-Sp12 [compound 352]	15.5 average rank (from RFU)	
Galb1-3GlcNAcb1-2Mana1-6(Galb1-3GlcNAcb1-2Mana1-3)Manb1-4GlcNAcb1-4(Fuca1-6)GlcNAcb-Sp22 [compound 355]	24.1 average rank (from RFU)	
Galb1-4GlcNAcb1-6(Galb1-4GlcNAcb1-2)Mana1-6(Galb1-4GlcNAcb1-4(Galb1-4GlcNAcb1-2)Mana1-3)Manb1-4GlcNAcb1-4GlcNAcb-Sp21 [compound 388]	51.9 average rank (from RFU)	
Galb1-4GlcNAcb1-2Mana1-6(Mana1-3)Manb1-4GlcNAcb1-4GlcNAcb-Sp12 [compound 365]	59.9 average rank (from RFU)	
Mana1-6(Mana1-3)Mana1-6(Mana1-3)Manb1-4GlcNAcb1-4GlcNAcb-Sp12 [compound 217]	67.9 average rank (from RFU)	
Mana1-6(Mana1-2Mana1-3)Mana1-6(Mana1-2Mana1-3)Manb1-4GlcNAcb1-4GlcNAcb-Sp12 [compound 211]	30.4 average rank (from RFU)	
B1		stoichiometry N [2]: 0.32; Ka [3]: 116000 M⁻¹
